In PubChem BioAssay AID248 (DTP/NCI, 2004) one finds T/C data, which are given here for 18 compounds.

This assay deals with L1210 leukemia ip in BDF1 mice, survival T/C. As to the kind of experiment: NCI In Vivo Anticancer Drug Screen. Data for tumor model L1210 Leukemia (intraperitoneal) in B6D2F1 (BDF1) mice. The note with it: endpoint: mean survival time, higher = longer survival. The gist of the method:
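Each compound was tested against a transplantable tumor grown in mice. The endpoint was survival, with treated animals benchmarked against vehicle controls as a simple ratio.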

[1] abbreviates: dose: 100.0 mg/kg/injection, schedule: Q01DX001 (ip), vehicle: other.
Setting [2] is: dose: 100.0 mg/kg/injection, schedule: Q01DX009 (ip), vehicle: saline with Tween-80.
[3] abbreviates: dose: 100.0 mg/kg/injection, schedule: Q04DX003 (ip), vehicle: other.
Where [4] appears, read: dose: 200.0 mg/kg/injection, schedule: Q01DX001 (ip), vehicle: other.
The mark [5] stands for this setting: dose: 200.0 mg/kg/injection, schedule: Q01DX009 (ip), vehicle: saline with Tween-80.
Where [6] appears, read: dose: 200.0 mg/kg/injection, schedule: Q04DX003 (ip), vehicle: other.
[7] abbreviates: dose: 400.0 mg/kg/injection, schedule: Q01DX009 (ip), vehicle: saline with Tween-80.
The mark [8] stands for this setting: dose: 100.0 mg/kg/injection, schedule: Q04DX002 (ip), vehicle: Klucel (hydroxypropylcellulose) (HPC).
Where [9] appears, read: dose: 50.0 mg/kg/injection, schedule: Q01DX009 (ip), vehicle: saline with Tween-80.
The mark [10] stands for this setting: dose: 100.0 mg/kg/injection, schedule: Q04DX003 (ip), vehicle: saline with Tween-80.
Setting [11] is: dose: 200.0 mg/kg/injection, schedule: Q04DX003 (ip), vehicle: saline with Tween-80.
[12] abbreviates: dose: 100.0 mg/kg/injection, schedule: Q04DX003 (ip), vehicle: Klucel (hydroxypropylcellulose) (HPC).
The mark [13] stands for this setting: dose: 200.0 mg/kg/injection, schedule: Q04DX003 (ip), vehicle: Klucel (hydroxypropylcellulose) (HPC).
Where [14] appears, read: dose: 400.0 mg/kg/injection, schedule: Q04DX003 (ip), vehicle: Klucel (hydroxypropylcellulose) (HPC).
Setting [15] is: dose: 100.0 mg/kg/injection, schedule: Q01DX009 (ip), vehicle: Klucel (hydroxypropylcellulose) (HPC).
Setting [16] is: dose: 200.0 mg/kg/injection, schedule: Q01DX009 (ip), vehicle: Klucel (hydroxypropylcellulose) (HPC).

SMILES strings stand for the structures. Values joined by “and” are separate entries in the source; they are usually repeats but may differ in a detail not shown here. Identical values can stand only once. Toxic doses and inconclusive results are not listed.

In the case of `COc1cc2ccc(C(N)=O)cc2cc1OC`, the T/C under setting [1] is 98 % of control; the T/C under setting [2] is 92 % of control; the T/C under setting [3] was 96 % of control; the T/C under setting [4] is 102 % of control; the T/C under setting [5] is 95 % of control; the T/C under setting [6] was 103 % of control. The T/C reads like this: (dose: 400.0 mg/kg/injection, schedule: Q01DX001 (ip), vehicle: other) 100 % of control; under setting [7], 98 % of control; (dose: 400.0 mg/kg/injection, schedule: Q04DX003 (ip), vehicle: other) 103 % of control.
As for `COc1cc2c(cc1O)-c1cc3ccc(OC)c(OC)c3c[n+]1CC2`, the T/C under setting [8] is 103 % of control.
With `O=C(OCc1ccccc1CN1CCOCC1)c1ccc([N+](=O)[O-])cc1Cl`, the T/C was 92 % of control (dose: 25.0 mg/kg/injection, schedule: Q04DX002 (ip), vehicle: Klucel (hydroxypropylcellulose) (HPC)); 106 % of control (dose: 50.0 mg/kg/injection, schedule: Q04DX002 (ip), vehicle: Klucel (hydroxypropylcellulose) (HPC)); 100 % of control under setting [8].
As to `O=[N+]([O-])c1cccc(O)c1`, the T/C (dose: 50.0 mg/kg/injection, schedule: Q01DX009 (ip), vehicle: saline) was 99 % of control; the T/C (dose: 100.0 mg/kg/injection, schedule: Q01DX009 (ip), vehicle: saline) was 92 % of control; the T/C under setting [3] was 106 % of control; the T/C (dose: 200.0 mg/kg/injection, schedule: Q01DX009 (ip), vehicle: saline) is 115 % of control; the T/C under setting [6] was 112 % of control.
With `Nc1cc(Cl)ccc1Nc1ccccc1`, the T/C by setting is: (dose: 50.0 mg/kg/injection, schedule: Q01DX001 (ip), vehicle: carboxymethylcellulose (CMC)) 101 % of control; (dose: 100.0 mg/kg/injection, schedule: Q01DX001 (ip), vehicle: carboxymethylcellulose (CMC)) 109 % of control; (dose: 200.0 mg/kg/injection, schedule: Q01DX001 (ip), vehicle: carboxymethylcellulose (CMC)) 101 % of control; (dose: 400.0 mg/kg/injection, schedule: Q01DX001 (ip), vehicle: carboxymethylcellulose (CMC)) 101 % of control.
With `CC(C)(C)CC(C)(C)N`, the T/C is, setting by setting: (dose: 12.5 mg/kg/injection, schedule: Q01DX001 (ip), vehicle: Klucel (hydroxypropylcellulose) (HPC)) 100 % of control; (dose: 25.0 mg/kg/injection, schedule: Q01DX001 (ip), vehicle: Klucel (hydroxypropylcellulose) (HPC)) 92 % of control; (dose: 50.0 mg/kg/injection, schedule: Q01DX001 (ip), vehicle: Klucel (hydroxypropylcellulose) (HPC)) 92 % of control.
For the compound `COc1cc2c(cc1OC)C1=C(CC2)C2CCCN2CC1` (centres undefined), the T/C is 100 % of control (dose: 6.25 mg/kg/injection, schedule: Q04DX003 (ip), vehicle: saline); 97 % of control (dose: 12.5 mg/kg/injection, schedule: Q04DX003 (ip), vehicle: saline); 94 % of control and 105 % of control (dose: 25.0 mg/kg/injection, schedule: Q04DX003 (ip), vehicle: saline); 102 % of control (dose: 50.0 mg/kg/injection, schedule: Q04DX003 (ip), vehicle: saline).
In the case of `CCCN(C)N=Nc1ccccc1C(N)=O`, the T/C reads like this: (dose: 44.0 mg/kg/injection, schedule: Q01DX009 (ip), vehicle: saline with Tween-80) 108 % of control; under setting [9], 113 % of control; (dose: 50.0 mg/kg/injection, schedule: Q04DX003 (ip), vehicle: saline with Tween-80) 110 % of control; (dose: 66.0 mg/kg/injection, schedule: Q01DX009 (ip), vehicle: saline with Tween-80) 108 % of control; under setting [1], 109 % of control; under setting [10], 111 % of control. For the same compound, the T/C runs as follows: (dose: 150.0 mg/kg/injection, schedule: Q01DX009 (ip), vehicle: saline with Tween-80) 153 % of control; under setting [4], 113 % of control; under setting [5], 120 % of control; under setting [11], 118 % of control.
Consider `COc1cc(C(=O)O)ccc1[N+](=O)[O-]`, for which the T/C under setting [10] was 102 % of control; the T/C under setting [11] is 102 % of control; the T/C (dose: 400.0 mg/kg/injection, schedule: Q04DX003 (ip), vehicle: saline with Tween-80) is 96 % of control.
`CCOC(=O)c1ccc(NC(=S)NC(=O)c2ccco2)cc1`: the T/C by setting is: under setting [2], 98 % of control; under setting [12], 102 % of control; under setting [5], 98 % of control; under setting [13], 98 % of control; under setting [7], 98 % of control; under setting [14], 96 % of control.
Regarding `CC(C)(O)C#Cc1ccccc1`, the T/C runs as follows: (dose: 50.0 mg/kg/injection, schedule: Q01DX009 (ip), vehicle: Klucel (hydroxypropylcellulose) (HPC)) 99 % of control; (dose: 100.0 mg/kg/injection, schedule: Q01DX005 (ip), vehicle: Klucel (hydroxypropylcellulose) (HPC)) 105 % of control; under setting [15], 99 % of control; under setting [8], 95 % of control; (dose: 200.0 mg/kg/injection, schedule: Q01DX005 (ip), vehicle: Klucel (hydroxypropylcellulose) (HPC)) 97 % of control; under setting [16], 92 % of control. The T/C (dose: 200.0 mg/kg/injection, schedule: Q04DX002 (ip), vehicle: Klucel (hydroxypropylcellulose) (HPC)) is 113 % of control and the T/C (dose: 400.0 mg/kg/injection, schedule: Q04DX002 (ip), vehicle: Klucel (hydroxypropylcellulose) (HPC)) is 102 % of control.
With `COc1cc(/C=N/NC(=O)c2cccs2)cc(OC)c1OC`, the T/C by setting is: under setting [2], 98 % of control; under setting [5], 94 % of control; under setting [7], 98 % of control.
For `C/C(=N/N=C(N)N)C(F)(F)F`, the T/C reads like this: (dose: 15.0 mg/kg/injection, schedule: Q01DX Z (ip), vehicle: saline) 104 % of control; (dose: 15.0 mg/kg/injection, schedule: Q01DX Z (oral), vehicle: saline) 108 % of control; (dose: 30.0 mg/kg/injection, schedule: Q01DX Z (ip), vehicle: saline) 87 % of control; (dose: 30.0 mg/kg/injection, schedule: Q01DX Z (oral), vehicle: saline) 106 % of control.
As to `CC[S][Pb]([c]1ccccc1)([c]1ccccc1)[c]1ccccc1`, the T/C (dose: 12.5 mg/kg/injection, schedule: Q04DX002 (ip), vehicle: Klucel (hydroxypropylcellulose) (HPC)) was 103 % of control.
As for `CCC(C#N)=C1CCCCC1`, the T/C (dose: 25.0 mg/kg/injection, schedule: Q01DX009 (ip), vehicle: saline with Tween-80) is 91 % of control; the T/C under setting [9] was 99 % of control; the T/C under setting [2] is 97 % of control; the T/C (dose: 100.0 mg/kg/injection, schedule: Q04DX003 (ip), vehicle: saline) is 100 % of control.
With `CCOCCOCCOC(C)Oc1ccccc1OC` (centres undefined), the T/C was 111 % of control (dose: 100.0 mg/kg/injection, schedule: Q04DX002 (ip), vehicle: saline); 96 % of control (dose: 200.0 mg/kg/injection, schedule: Q04DX002 (ip), vehicle: saline); 114 % of control (dose: 400.0 mg/kg/injection, schedule: Q04DX002 (ip), vehicle: saline).
Regarding `CCNC(=O)N(C)Cc1ccc(Cl)cc1`, the T/C is, setting by setting: under setting [2], 88 % of control; under setting [5], 95 % of control.
For the compound `Cc1ccc(C)c(OS(=O)(=O)c2ccc([N+](=O)[O-])cc2)c1`, the T/C is, setting by setting: under setting [15], 98 % of control; under setting [12], 100 % of control; under setting [16], 92 % of control; under setting [13], 91 % of control; (dose: 400.0 mg/kg/injection, schedule: Q01DX009 (ip), vehicle: Klucel (hydroxypropylcellulose) (HPC)) 97 % of control; under setting [14], 89 % of control.
